Assay in all cases: inhibition of tumour cell growth, NCI panel, 48 h
The subject of experiment [1] is MOLT-4 leukemia.
Experiment [2] concerns HOP-62 NSCLC.
The test system of experiment [3] is NCI-H522 lung.
Experiment [4] has as its system HCT-116 colon.
Experiment [5] relates to RXF 393 renal.
Experiment [6] has as its system CAKI-1 renal.
The subject of experiment [7] is 786-0 renal.
Experiment [8] deals with SK-MEL-28 melanoma.
Experiment [9] deals with OVCAR-4 ovarian.

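96-well plates; 48 h exposure; 5 concentrations. Endpoints by linear interpolation between flanking doses. Not reached: highest tested concentration assigned. GI50 is the concentration that inhibits growth by half. TGI: total growth inhibition.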

`CC1=C(/C=C/C(C)=C/C=C/C(C)=C/C=C/C=C(C)/C=C/C=C(C)/C=C/C2=C(C)C(=O)C(O)CC2(C)C)C(C)(C)CC(O)C1=O` (stereo not drawn): the TGI in [1], in experiment [2], in [3], in experiment [4], in [5] and in experiment [6] was > 100 µM throughout. Further, the TGI in [7], in experiment [8] and in experiment [9] was > 100 µM in each case.
`CCOC(=O)C1=C(Nc2ccc(Cl)c(Cl)c2)OC/C1=N\NC(=O)Cc1ccccc1`: the TGI in experiment [1], in experiment [2], in [3], in experiment [4], in experiment [5] and in experiment [6] was > 100 µM in each case. Also, the TGI in experiment [7], in [8] and in [9] was > 100 µM each time.
For the compound `COc1ccc(N2C(=O)C3c4[nH]c5ccccc5c4C4CCCCCCC4C3C2=O)cc1` (stereo not drawn), the TGI in experiment [1] is 37.9 µM; in experiment [2] it was 26 µM; in [3] it was 36.5 µM; in experiment [4], 15.3 µM; in [6] it was 39.5 µM; in experiment [7], 8.29 µM. For the same compound, the TGI in [8] amounted to 42 µM; in experiment [9], 33.2 µM.
With `CCCCCCCCCCCCCC(=O)NCC(OCC)OCC`, the TGI in experiment [2], in experiment [3], in experiment [4], in experiment [5], in experiment [7] and in [8] was > 100 µM in each case. Further, in experiment [9], the TGI was > 100 µM.
Take `O=C1CCN2CCC(=O)c3c2c(cc2ccccc32)N1`: the TGI in experiment [1], in experiment [2], in experiment [3], in experiment [4], in experiment [5] and in experiment [6] was > 100 µM throughout. In experiment [7], the TGI was > 100 µM.
Turning to `COc1cc(/C=C/c2ccc(OC)c(OC)c2OC)cc(OC)c1OC`, the TGI is > 62 µM in [1]; 32.9 µM in [2]; > 51.6 µM in experiment [3]; 27.9 µM in experiment [4]; 46.3 µM in experiment [5]; > 96.4 µM in [6]. In addition, the TGI in experiment [7] came out at 51.6 µM; in experiment [8], 37.7 µM; in [9] it was 70.9 µM.
For the compound `COC(=O)C(CC(=O)c1c[nH]c2ccccc12)c1c[nH]c2ccccc12` (stereo not drawn), the TGI in experiment [1] came out at 46.7 µM; in [2], 54.8 µM; in experiment [4] it was 31.6 µM; in experiment [5], 28 µM; in [6] it was 70.8 µM; in [7] it was 57.7 µM. Moreover, the TGI in experiment [8] is 42.1 µM; in [9], 40.2 µM.
Take `CC1=NOC(=O)C1N=Nc1ccc(Br)c(C)c1` (stereo not drawn): the TGI in experiment [1] worked out at 45.3 µM; in experiment [2] it was 48.4 µM; in [4] it was 33.9 µM; in [5] it was 43.1 µM; in experiment [6] it was 30.8 µM; in [7], 38.8 µM. Also, the results for the TGI in [8] and in [9] were 48.7 µM and 29.3 µM, respectively.
Turning to `COC(=O)[C@]1(C)C(OC)=CC(=O)C2C1[C@H]1CCC[C@@H]21` (stereo partly drawn), the TGI in experiment [1], in experiment [2], in [3], in experiment [4], in [5] and in experiment [6] was > 100 µM in each case. The TGI in experiment [7] and in experiment [8] was > 100 µM in each case.
As to `Cc1cccc(N=C2NC(=O)C(CC(=O)Nc3ccc(C)cc3C)S2)c1` (stereo not drawn), the TGI in [1], in experiment [3], in [4], in experiment [5], in experiment [6] and in experiment [7] was > 100 µM in each case. For the same compound, the TGI in experiment [8] and in [9] was > 100 µM each time.
For `O=C(CSc1nc(-c2ccccc2)c(-c2ccccc2)[nH]1)NNC(=S)Nc1ccccc1`, the TGI in [1], in [2], in experiment [3], in experiment [4], in [6] and in experiment [7] was > 100 µM throughout. The TGI in experiment [8] and in experiment [9] was > 100 µM each time.
Take `COc1cc(C2c3cc4c(cc3[C@@H](OCCN(C)C)C3COC(=O)[C@H]23)OCO4)cc(OC)c1O` (stereo partly drawn): in experiment [1], the GI50 is 0.0105 µM. In addition, the TGI in experiment [1] is 0.0878 µM; in experiment [2], 0.241 µM; in experiment [3] it was 1.7 µM; in experiment [4], 7.33 µM; in experiment [5], 1.97 µM; in experiment [6], 1.33 µM. The TGI stood at 0.663 µM in [7], 4.1 µM in [8] and 6.33 µM in experiment [9].
`Clc1ccc(-c2c(C3=NCCN3)nnn2-c2ccccc2)cc1`: the TGI in experiment [1], in experiment [2], in [3], in experiment [4], in experiment [5] and in experiment [6] was > 100 µM in each case. Further, the TGI in [7], in experiment [8] and in experiment [9] was > 100 µM in each case.
Turning to `S=P(N1CCCC1)(N1CC1)N1CC1`, the TGI in experiment [1], in experiment [2], in experiment [3], in [4], in experiment [5] and in [6] was > 100 µM in each case. Besides, the TGI in experiment [7], in experiment [8] and in experiment [9] was > 100 µM in each case.
`CC(/C=C/NNC1=NC(c2ccccc2)C(c2ccccc2)=NN1)Sc1ccccc1N` (stereo not drawn): the TGI is 34 µM in experiment [1]; 33.7 µM in [2]; 11.7 µM in experiment [3]; 21.8 µM in [4]; 28 µM in experiment [6]; 13.6 µM in [7]. Further, the TGI in [8] is 21.3 µM; in [9] it was 20 µM.
With `N#Cc1c(C[n+]2ccccc2)c2ccccc2oc1=O`, the TGI in experiment [1], in experiment [2], in [3], in [4], in experiment [6] and in experiment [7] was > 100 µM throughout. Further, the TGI in experiment [8] and in experiment [9] was > 100 µM throughout.
